Columns and labels:
[1] = in vitro; assay type: cell-based; conditions: human
Experimental: (§1) Black 96-well clear-bottom microtiter plates (Corning, Amsterdam, The Netherlands) were filled in duplicate using a customized robot system with serial 4-fold dilutions of compound in a final volume of 50 μl culture medium [RPMI medium without phenol red, 10% FBS, 0.04% gentamycin (50 mg/ml) and 0.5% DMSO]. Then, 100 μl of a HeLa cell suspension (5×10^4 cells/ml) in culture medium was added to each well followed by the addition of 50 μl rgRSV224 (MOI=0.02) virus in culture medium using a multidrop dispenser (Thermo Scientific, Erembodegem, Belgium). rgRSV224 virus is an engineered virus that includes an additional GFP gene (Hallak et al, 2000) and was in-licensed from the NIH (Bethesda, Md., USA). Medium, virus- and mock-infected controls were included in each test. Cells were incubated at 37° C. in a 5% CO2 atmosphere. Three days post-virus exposure, viral replication was quantified by measuring GFP expression in the cells by a MSM laser microscope (Tibotec, Beerse, Belgium). The EC50 was defined as the 50% inhibitory concentration for GFP expression. In parallel, compounds were incubated for three days in a set of white 96-well microtitier plates (Corning) and the cytotoxicity of compounds in HeLa cells was determined by measuring the ATP content of the cells using the ATPlite kit (PerkinElmer, Zaventem, Belgium) according to the manufacturer's instructions. The CC50 was defined as the 50% concentration for cytotoxicity.

[2] = system: rgRSV224 virus; experiment: Antiviral activity: rgRSV224 (GFP-expressing RSV) replication in HeLa cells, GFP expression readout; assay type: cell-based; conditions: human respiratory syncytial virus, 72 h, read-out: WT activity EC50
Experimental: as §1

Compound | CC50 at 3 days [1] [µM] | EC50 [2] [µM]
CC(C)CCn1c(Cn2c(=O)cnc3ccc(-c4ccncc4)cc32)nc2nc(Cl)ccc21 [Compound P14, 1-((5-chloro-1-isopentyl-1H-imidazo[4,5-b]pyridin-2-yl)methyl)-7-(pyridin-4-yl)quinoxalin-2(1H)-one] | 14.7 | 0.061
CS(=O)(=O)CCCn1c(Cn2c(=O)cnc3cc(F)ccc32)nc2cc(Br)ccc21 [Compound P25, 1-((5-bromo-1-(3-(methylsulfonyl)propyl)-1H-benzo[d]imidazol-2-yl)methyl)-6-fluoroquinoxalin-2(1H)-one] | 64 | 0.0065
CC(C)CCn1c(Cn2c(=O)cnc3ccc(-c4cccn4C(=O)OC(C)(C)C)cc32)nc2nc(Cl)ccc21 [Compound P16, tert-butyl 2-(4-((5-chloro-1-isopentyl-1H-imidazo[4,5-b]pyridin-2-yl)methyl)-3-oxo-3,4-dihydroquinoxalin-6-yl)-1H-pyrrole-1-carboxylate] | 42.5 | 0.51
Cc1nc(C)c(-c2ccc3ncc(=O)n(Cc4nc5cc(F)ccc5n4CCCCF)c3c2)s1 [Compound P4, 7-(2,4-dimethylthiazol-5-yl)-1-((5-fluoro-1-(4-fluorobutyl)-1H-benzo[d]imidazol-2-yl)methyl)quinoxalin-2(1H)-one] | 31.1 | 4.78
O=c1cnc2ccc(-c3ccc(C(F)(F)F)cc3)cc2n1Cc1nc2cc(F)ccc2n1CCCCF [Compound P3, 1-((5-fluoro-1-(4-fluorobutyl)-1H-benzo[d]imidazol-2-yl)methyl)-7-(4-(trifluoromethyl)phenyl)quinoxalin-2(1H)-one] | 42.4 | > 10.1
O=c1cnc2ccc(-c3ccncc3)cc2n1Cc1nc2cc(F)ccc2n1CCCCF [Compound P8, 1-((5-fluoro-1-(4-fluorobutyl)-1H-benzo[d]imidazol-2-yl)methyl)-7-(pyridin-4-yl)quinoxalin-2(1H)-one] | 86.8 | 2.69
CC(C)CCn1c(CN2C(=O)CN(C3CC3)c3ccncc32)nc2nc(Cl)ccc21 [Compound P22, 4-((5-chloro-1-isopentyl-1H-imidazo[4,5-b]pyridin-2-yl)methyl)-1-cyclopropyl-1,2-dihydropyrido[3,4-b]pyrazin-3(4H)-one] | 60.7 | 0.12
CC(C)CCn1c(Cn2c(=O)cnc3ccc(Br)cc32)nc2nc(Cl)ccc21 [Compound P13, 7-bromo-1-((5-chloro-1-isopentyl-1H-imidazo[4,5-b]pyridin-2-yl)methyl) quinoxalin-2(1H)-one] | 46.5 | 0.004
CS(=O)(=O)CCCn1c(Cn2c(=O)cnc3ccc(F)cc32)cc2cc(Br)ccc21 [Compound P28, 1-((5-bromo-1-(3-(methylsulfonyl)propyl)-1H-indol-2-yl)methyl)-7-fluoroquinoxalin-2(1H)-one] | – | 0.018
O=c1cnc2ccc(-c3ccccc3)cc2n1Cc1nc2cc(F)ccc2n1CCCCF [Compound P6, 1-((5-fluoro-1-(4-fluorobutyl)-1H-benzo[d]imidazol-2-yl)methyl)-7-phenylquinoxalin-2(1H)-one] | 42.8 | 3.94
CS(=O)(=O)CCCn1c(CN2C(=O)CN(C3CC3)c3ccncc32)nc2cc(Br)ccc21 [Compound P23, 4-((5-bromo-1-(3-(methylsulfonyl)propyl)-1H-benzo[d]imidazol-2-yl)methyl)-1-cyclopropyl-1,2-dihydropyrido[3,4-b]pyrazin-3(4H)-one] | 71.3 | 0.0015
CC(C)CCn1c(Cn2c(=O)cnc3cc(F)ccc32)nc2nc(Cl)ccc21 [Compound P20, 1-((5-chloro-1-isopentyl-1H-imidazo[4,5-b]pyridin-2-yl)methyl)-6-fluoroquinoxalin-2(1H)-one] | > 100 | 0.032
O=c1cnc2cnccc2n1Cc1nc2cc(F)ccc2n1CCCCF [Compound P11, 1-((5-fluoro-1-(4-fluorobutyl)-1H-benzo[d]imidazol-2-yl)methyl)pyrido[3,4-b]pyrazin-2(1H)-one] | > 100 | 7.21
O=C1CN(C2CC2)c2ccncc2N1Cc1nc2cc(F)ccc2n1CCCCF [Compound P12, 1-cyclopropyl-4-((5-fluoro-1-(4-fluorobutyl)-1H-benzo[d]imidazol-2-yl)methyl)-1,2-dihydropyrido[3,4-b]pyrazin-3(4H)-one] | 50.1 | 0.011
CC(C)CCn1c(Cn2c(=O)cnc3cnccc32)nc2nc(Cl)ccc21 [Compound P21, 1-((5-chloro-1-isopentyl-1H-imidazo[4,5-b]pyridin-2-yl)methyl)pyrido[4,3-b]pyrazin-2(1H)-one] | > 100 | > 10.1
CS(=O)(=O)CCCn1c(Cn2c(=O)cnc3ccc(F)cc32)nc2cc(Br)ccc21 [Compound P24, 1-((5-bromo-1-(3-(methylsulfonyl)propyl)-1H-benzo[d]imidazol-2-yl)methyl)-7-fluoroquinoxalin-2(1H)-one] | 78.5 | 0.004
CN(C)Cc1cccc(-c2ccc3ncc(=O)n(Cc4nc5cc(F)ccc5n4CCCCF)c3c2)c1 [Compound P7, 7-(3-((dimethylamino)methyl)phenyl)-1-((5-fluoro-1-(4-fluorobutyl)-1H-benzo[d]imidazol-2-yl)methyl)quinoxalin-2(1H)-one] | 17.6 | 0.099
CC(C)CCn1c(Cn2c(=O)cnc3ccc(-c4ccc(F)cc4)cc32)nc2nc(Cl)ccc21 [Compound P18, 1-((5-chloro-1-isopentyl-1H-imidazo[4,5-b]pyridin-2-yl)methyl)-7-(4-fluorophenyl)quinoxalin-2(1H)-one] | 51.5 | 3.33
O=c1cnc2ccc(F)cc2n1Cc1nc2cc(F)ccc2n1CCCCF [Compound P9, 7-fluoro-1-((5-fluoro-1-(4-fluorobutyl)-1H-benzo[d]imidazol-2-yl)methyl)quinoxalin-2(1H)-one] | > 100 | 0.27
CS(=O)(=O)CCCn1c(CN2C(=O)CN(C3CC3)c3ccncc32)nc2cc(Cl)ccc21 [Compound P26, 4-((5-chloro-1-(3-(methylsulfonyl)propyl)-1H-benzo[d]imidazol-2-yl)-methyl)-1-cyclopropyl-1,2-dihydropyrido[3,4-b]pyrazin-3(4H)-one] | > 100 | 0.015
O=c1cnc2ccc(-c3ccc(CCN4CCOCC4)cc3)cc2n1Cc1nc2cc(F)ccc2n1CCCCF [Compound P2, 1-((5-fluoro-1-(4-fluorobutyl)-1H-benzo[d]imidazol-2-yl)methyl)-7-(4-(2-morpholinoethyl)phenyl)quinoxalin-2(1H)-one] | 94 | > 10.1
O=C1CN(C2CC2)c2ccncc2N1Cc1nc2cc(Cl)ccc2n1CCCC(F)(F)F [Compound P27, 4-((5-chloro-1-(4,4,4-trifluorobutyl)-1H-benzo[d]imidazol-2-yl)methyl)-1-cyclopropyl-1,2-dihydropyrido[3,4-b]pyrazin-3(4H)-one] | > 100 | 0.029
CS(=O)(=O)CCCn1c(Cn2c(=O)cnc3cc(F)ccc32)cc2cc(Br)ccc21 [Compound P29, 1-((5-bromo-1-(3-(methylsulfonyl)propyl)-1H-indol-2-yl)methyl)-6-fluoroquinoxalin-2(1H)-one] | 9.73 | 0.055
O=c1cnc2cc(F)ccc2n1Cc1nc2cc(F)ccc2n1CCCCF [Compound P10, 6-fluoro-1-((5-fluoro-1-(4-fluorobutyl)-1H-benzo[d]imidazol-2-yl)methyl)quinoxalin-2(1H)-one] | > 100 | 1.04
O=c1cnc2ccc(Br)cc2n1Cc1nc2cc(F)ccc2n1CCCCF [Compound P1, 7-bromo-1-{[5-fluoro-1-(4-fluorobutyl)-1H-benzimidazol-2-yl]methyl}quinoxalin-2(1H)-one] | 87 | 0.071
Cn1nc(C(F)(F)F)cc1-c1ccc2ncc(=O)n(Cc3nc4cc(F)ccc4n3CCCCF)c2c1 [Compound P5, 1-((5-fluoro-1-(4-fluorobutyl)-1H-benzo[d]imidazol-2-yl)methyl)-7-(1-methyl-3-(trifluoromethyl)-1H-pyrazol-5-yl)quinoxalin-2(1H)-one] | 53.3 | 4.89
CC(C)CCn1c(Cn2c(=O)cnc3ccc(-c4cncnc4)cc32)nc2nc(Cl)ccc21 [Compound P17, 1-((5-chloro-1-isopentyl-1H-imidazo[4,5-b]pyridin-2-yl)methyl)-7-(pyrimidin-5-yl)quinoxalin-2(1H)-one] | > 100 | 0.48
CC(C)CCn1c(Cn2c(=O)cnc3ccc(-c4ccsc4)cc32)nc2nc(Cl)ccc21 [Compound P15, 1-((5-chloro-1-isopentyl-1H-imidazo[4,5-b]pyridin-2-yl)methyl)-7-(thiophen-3-yl)-quinoxalin-2(1H)-one] | 27.6 | 0.34
CC(C)CCn1c(Cn2c(=O)cnc3ccc(F)cc32)nc2nc(Cl)ccc21 [Compound P19, 1-((5-chloro-1-isopentyl-1H-imidazo[4,5-b]pyridin-2-yl)methyl)-7-fluoroquinoxalin-2(1H)-one] | > 100 | 0.042

— patent US10501445B2, “Quinoxalinones and dihydroquinoxalinones as respiratory syncytial virus antiviral agents” (JANSSEN SCIENCES IRELAND UC, priority 2013, dated 2019)
